This is an account of results in EP4800016A1, “METTL3 INHIBITOR” (Hangzhou Bangshun Pharmaceutical Co., Ltd., priority 2023, dated 2025).

Series [1] has as its system Kasumi-1 cells. In words: Kasumi-1 cell inhibitory activity (CellTiter-Glo, 5 days). It is filed as cell-based. The following applies: Homo sapiens, 120 h, 5 days incubation, CellTiter-Glo luminescence. The method, then: Test compounds were dissolved in DMSO to prep are a 250×final concentration solution. The initial concentration was 10 µM with 3-fold dilution, resulting in a total of ten concentration points. 4 µL of the compound solution was added to 96 µL of cell culture medium to dilute it to 10×the final concentration. On the first day, Kasumi-1 cells (purchased from Precedo) were suspended in cell culture medium at the desired density, 90 µL of the cell suspension was added to a 96-well plate, and 10 µL of 10×compound solution was added for incubation, with a final DMSO concentration of 0.4% in each well. Incubated at 37 °C, 5% CO2 for 5 days. Before measurement after 5 days, the test plate was placed at room temperature, 50 µL of CellTiter-Glo® reagent (purchased from Promega, Cat. No. G7573) was added, mixed on a shaker for 2 minutes to lyse the cells, and incubated at room temperature for 10 minutes to stabilize the […] signal. Luminescence values were recorded using Paradigm, and the response-concentration curve was fitted with Graphpad Pr ism 8.0 to calculate IC50values. The results of each compound are shown in Table2, where A indicates <100nM, B indicates 100-1000nM, and C indicates >1000nM. [formula]
On the technique in general: Cellular ATP, detected with luciferase, serves as a proxy for viable cell number.

The target in series [2] is T1, METTL3/14 (Homo sapiens, UniProt Q86U44).
T1 construct: purchased active motif 31570
As to the kind of experiment: METTL3/14 methyltransferase activity assay (HTRF). The series is classed as biochemical. The conditions noted are these: 10 concentrations, 3-fold dilution from 10 µM. A digest of the protocol: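 METTL3/14 preincubated with compound (10-point 3-fold series from 10 µM final top) 10 min at 25°C, then biotinylated substrate plus SAM for 60 min. Methylation read by HTRF with YTHDF1, streptavidin-Tb and anti-Flag acceptor after 60 min at 25°C.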
For orientation: In TR-FRET formats the signal depends on donor and acceptor labels being close together.

Series [3] is described as follows: Rat pharmacokinetic test, intravenous injection. It is filed as in vivo. The conditions noted are these: male, SD, plasma, rats, 2 mg/kg, average of 3 rats. The method, then:
3.1 Experimental Animals: Male SD rats, weighing 190-230 g, 3 rats per compound 3.2 Experimental Design: All animals were fasted overnight (10-14 hours) the day before admin istration and fed 4 hours after admin istration. For intravenous injection, the drug vehicle was 5% DMA + 5% Solutol + 90% Saline (DMA: dimethylacetamide; Solutol: polyethyleneglycol-15-hydroxystearate; Saline: normal saline), with a dosage of 2 mg/kg and an admin istration concentration of 1 mg/mL. Blood samples were collected via the jugular vein at 5 min, 15 min, 30 min, 1 h, 2 h, 4 h, 6 h, 8 h, and 24 h after admin istration. Approximately 0.25 mL of each sample was collected, anticoagulated with EDTA-K2, placed on ice after collection, and centrifuged to separate plasma within 1 hour (6000 g, 3 min, 2-8°C). Plasma samples were stored in a - 80°Crefrigerator before analys is.
3.3 Result Analys is:Collected samples were detected using LC-MS/MS method. Pharmacokinetic parameters were calculated from blood drug concentration data at different time points using Phoenix WinNonlin 8.2.0 to obtain the average values of in vivo clearance (CL) and AUC0-t. Table 3 CL and AUC of test compounds after intravenous injection in rats

T1 sequence (Q86U44 whole entry): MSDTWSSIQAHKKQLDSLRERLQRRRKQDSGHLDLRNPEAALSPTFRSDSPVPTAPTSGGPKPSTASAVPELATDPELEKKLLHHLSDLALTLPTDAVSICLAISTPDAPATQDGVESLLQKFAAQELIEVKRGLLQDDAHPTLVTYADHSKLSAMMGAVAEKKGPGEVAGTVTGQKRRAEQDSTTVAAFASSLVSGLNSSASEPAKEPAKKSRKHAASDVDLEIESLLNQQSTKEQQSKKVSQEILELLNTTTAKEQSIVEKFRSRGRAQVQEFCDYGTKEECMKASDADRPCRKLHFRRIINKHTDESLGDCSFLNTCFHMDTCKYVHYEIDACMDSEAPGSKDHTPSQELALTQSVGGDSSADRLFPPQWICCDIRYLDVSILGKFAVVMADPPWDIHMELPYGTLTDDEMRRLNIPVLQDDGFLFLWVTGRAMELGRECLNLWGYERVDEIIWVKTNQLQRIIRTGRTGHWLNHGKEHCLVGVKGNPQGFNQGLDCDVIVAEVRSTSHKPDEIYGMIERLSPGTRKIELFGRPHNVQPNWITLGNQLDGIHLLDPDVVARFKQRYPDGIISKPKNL
T1 sequence (Q9HCE5 whole entry partner): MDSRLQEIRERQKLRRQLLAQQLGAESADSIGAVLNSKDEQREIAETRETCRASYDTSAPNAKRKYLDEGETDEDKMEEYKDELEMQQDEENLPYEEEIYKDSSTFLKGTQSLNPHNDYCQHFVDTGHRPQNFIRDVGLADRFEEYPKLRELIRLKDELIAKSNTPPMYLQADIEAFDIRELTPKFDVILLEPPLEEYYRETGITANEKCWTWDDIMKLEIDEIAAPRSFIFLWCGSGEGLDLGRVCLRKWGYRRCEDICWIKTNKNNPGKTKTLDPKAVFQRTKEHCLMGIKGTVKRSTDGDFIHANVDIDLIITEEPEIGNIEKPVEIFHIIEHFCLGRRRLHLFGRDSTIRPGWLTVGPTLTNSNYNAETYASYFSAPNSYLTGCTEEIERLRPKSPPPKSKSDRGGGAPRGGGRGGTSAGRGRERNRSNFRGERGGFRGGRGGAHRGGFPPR

Broadly, the IC50 is the concentration that inhibits the measured activity by half. High values mean a need for much substance, low ones inhibition by little substance. As usually defined, the AUC(0-t) is the area under the concentration-time curve up to a stated or last time point. Higher therefore signals high exposure. One may read the clearance as the rate of elimination divided by the concentration. The low end stands for inefficient removal, the high end for efficient removal. In series [1], `O=C(NCc1ccc2cc(CNCC3CC(F)(F)C3)[nH]c2c1)c1cc(=O)n2cc3c(cc2n1)OCCO3` [Example 24, N-((2-((((3,3-Difluorocyclobutyl)methyl)amino)methyl)-1H-indol-6-yl)methyl)-9-oxo-2,3-dihydro-9H-[1,4]dioxino[2',3':4,5]pyrido[1,2-a]pyrimidine-7-carboxamide] had an IC50 of 100 to 1000 nM. This molecule also gave an IC50 in series [2] of less than 10 nM. Moreover, in series [3], the AUC(0-t) amounted to 2180 ng·h/mL and the clearance worked out at 15.3 mL/min/kg.
`O=C(NCc1ccc2cc(CNCC3CCC3)[nH]c2c1)c1cc(=O)n2cc3c(cc2n1)OCO3` [Example 25, N-((2-(((Cyclobutylmethyl)amino)methyl)-1H-indol-6-yl)methyl)-8-oxo-8H-[1,3]dioxolo[4',5':4,5]pyrido[1,2-a]pyrimidine-6-carboxamide]: the IC50 in series [1] was 100 to 1000 nM; in series [2], less than 10 nM. This molecule also had an AUC(0-t) in series [3] of 1460 ng·h/mL. Further, the clearance in series [3] was 22.7 mL/min/kg.
The molecule `O=C(NCc1cc2[nH]c(CNCC3CCC3)cc2cc1F)c1cc(=O)n2cc3c(cc2n1)OCO3` [Example 73, N-((2-(((Cyclobutylmethyl)amino)methyl)-5-fluoro-1H-indol-6-yl)methyl)-8-oxo-8H-[1,3]dioxolo[4',5':4,5]pyrido[1,2-a]pyrimidine-6-carboxamide] came in with an IC50 in series [1] of 100 to 1000 nM. For the same molecule, the IC50 in series [2] was less than 10 nM. In series [3], this molecule gave an AUC(0-t) of 1440 ng·h/mL and a clearance of 23 mL/min/kg.
In the case of `[2H]C([2H])(NCc1cc2cc(F)c(CNC(=O)c3cc(=O)n4cc5c(cc4n3)OCO5)cc2[nH]1)C1CCC1` [Example 88, N-((2-(((Cyclobutylmethyl-d2)amino)methyl)-5-fluoro-1H-indol-6-yl)methyl)-8-oxo-8H-[1,3]dioxolo[2',3':4,5]pyrido[1,2-a]pyrimidine-6-carboxamide], in series [1], the IC50 is less than 100 nM. The IC50 in series [2] was less than 10 nM. In addition, in series [3], the AUC(0-t) is 1710 ng·h/mL and the clearance is 19.1 mL/min/kg.
In turn, `[2H]C([2H])(NCc1cc2cc(F)c(CNC(=O)c3cc(=O)n4cc5c(cc4n3)OCO5)cc2[nH]1)C12CC(F)(C1)C2` [Example 89, N-((5-Fluoro-2-((((3-fluorobicyclo[1.1.1]pentan-1-yl)methyl-d2)amino)methyl)-1H-indol-6-yl)methyl)-8-oxo-8H-[1,3]dioxolo[2',3':4,5]pyrido[1,2-a]pyrimidine-6-carboxamide] displayed an IC50 in series [1] of less than 100 nM. The same molecule yielded an IC50 in series [2] of less than 10 nM. In addition, in series [3], the AUC(0-t) is 1210 ng·h/mL and the clearance was 28.1 mL/min/kg.
Take `[2H]C([2H])(NCc1cc2cc(F)c(CNC(=O)c3cc(=O)n4cc5c(cc4n3)OCCO5)cc2[nH]1)C1CCC1` [Example 90, N-((2-(((Cyclobutylmethyl-d2)amino)methyl)-5-fluoro-1H-indol-6-yl)methyl)-9-oxo-2,3-dihydro-9H-[1,4]dioxino[2',3':4,5]pyrido[1,2-a]pyrimidine-7-carboxamide]: the IC50 in series [1] is less than 100 nM; in series [2], less than 10 nM.
Turning to `[2H]C([2H])(NCc1cc2ccc(CNC(=O)c3cc(=O)n4cc5c(cc4n3)OCCO5)cc2[nH]1)C12CC(CO1)C2` [Example 91, N-((2-((((2-Oxabicyclo[2.1.1]hexan-1-yl)methyl-d2)amino)methyl)-1H-indol-6-yl)methyl)-9-oxo-2,3-dihydro-9H-[1,4]dioxino[2',3':4,5]pyrido[1,2-a]pyrimidine-7-carboxamide], the IC50 lay in the range of 100 to 1000 nM in series [1] and 10 to 100 nM in series [2].
On to `[2H]C([2H])(NCc1cc2ccc(CNC(=O)c3cc(=O)n4cc5c(cc4n3)OCO5)cc2[nH]1)C12CC(CO1)C2` [Example 92, N-((2-((((2-Oxabicyclo[2.1.1]hexan-1-yl)methyl-d2)amino)methyl)-1H-indol-6-yl)methyl)-8-oxo-8H-[1,3]dioxolo[4',5':4,5]pyrido[1,2-a]pyrimidine-6-carboxamide], for which the IC50 in series [1] was in the range of 100 to 1000 nM; in series [2] it was 10 to 100 nM.
As for `[2H]C([2H])(NCc1cc2cc(F)c(CNC(=O)c3cc(=O)n4cc5c(cc4n3)OCO5)cc2[nH]1)C12CC(CO1)C2` [Example 93, N-((2-((((2-Oxabicyclo[2.1.1]hexan-1-yl)methyl-d2)amino)methyl)-5-fluoro-1H-indol-6-yl)methyl)-8-oxo-8H-[1,3]dioxolo[4',5':4,5]pyrido[1,2-a]pyrimidine-6-carboxamide], the IC50 fell in the range of 100 to 1000 nM in series [1] and 10 to 100 nM in series [2].
In series [1], `[2H]C([2H])(NCc1cc2cc(F)c(CNC(=O)c3cc(=O)n4cc5c(cc4n3)OCCO5)cc2[nH]1)C12CC(F)(C1)C2` [Example 94, N-((5-fluoro-2-((((3-fluorobicyclo[1.1.1]pentan-1-yl)methyl-d2)amino)methyl)-1H-indol-6-yl)methyl)-9-oxo-2,3-dihydro-9H-[1,4]dioxino[2',3':4,5]pyrido[1,2-a]pyrimidine-7-carboxamide] returned an IC50 of less than 100 nM. In series [2], the IC50 was less than 10 nM. In series [3], this molecule yielded an AUC(0-t) of 1120 ng·h/mL and a clearance of 28.5 mL/min/kg.
For `[2H]C([2H])(NCc1cc2ccc(CNC(=O)c3cc(=O)n4cc5c(cc4n3)OCCO5)cc2[nH]1)C12CC(F)(C1)C2` [Example 95, N-((2-((((3-fluorobicyclo[1.1.1]pentan-1-yl)methyl-d2)amino)methyl)-1H-indol-6-yl)methyl)-9-oxo-2,3-dihydro-9H-[1,4]dioxino[2',3':4,5]pyrido[1,2-a]pyrimidine-7-carboxamide], the IC50 in series [1] was less than 100 nM; in series [2], less than 10 nM.
